Source: the supplement of paper PMC13207355

Assays:
Settings in all cases: exposure time: 72 h
E34 [1] = patient-derived glioblastoma stem cells of proneural subtype; test: surviving fraction (nuclei count normalised to DMSO); higher = more cells surviving (less toxic)
E31 [2] = patient-derived glioblastoma stem cells of proneural subtype; test: as above
FT3469 [3] = normal neural stem cell line; test: as above
E28 [4] = patient-derived glioblastoma stem cells of classical subtype; test: as above
E13 [5] = patient-derived glioblastoma stem cells of classical subtype; test: as above
E21 [6] = patient-derived glioblastoma stem cells of mesenchymal subtype; test: as above
E57 [7] = patient-derived glioblastoma stem cells of mesenchymal subtype; test: as above
E34 [8] = test: phenotypic distance (Euclidean, principal components) from DMSO controls (arbitrary units); higher = stronger morphological change
E31 [9] = test: as above
FT3469 [10] = test: as above
E28 [11] = test: as above
E13 [12] = test: as above
E21 [13] = test: as above
E57 [14] = test: as above
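Throughout, for phenotypic distance (Euclidean, principal components) from DMSO controls: cell Painting imaging in 384-well plates, CellProfiler features reduced to at least 20 principal components, Euclidean distance versus same-plate DMSO vehicle wells (0.1% v/v), median over six images per well.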
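Throughout, for surviving fraction (nuclei count normalised to DMSO): nuclei counted by high-content imaging of Hoechst-stained cells in laminin-coated 384-well plates, relative to 0.1% DMSO vehicle wells, with staurosporine as cell-death control.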

c1ccc2c(c1)[I+]c1ccccc1-2 [Diphenyleneiodonium chloride]
surviving fraction (E34 [1]; 4.1 nM): 0.75 | surviving fraction (E34 [1]; 12.3 nM): 0.634 | surviving fraction (E34 [1]; 37 nM): 0.521 | surviving fraction (E34 [1]; 111.1 nM): 0.586 | surviving fraction (E34 [1]; 333.3 nM): 0.555 | surviving fraction (E34 [1]; 1000 nM): 0.519 | surviving fraction (E34 [1]; 3000 nM): 0.411 | surviving fraction (E31 [2]; 4.1 nM): 0.886 | surviving fraction (E31 [2]; 12.3 nM): 0.765 | surviving fraction (E31 [2]; 37 nM): 0.518 | surviving fraction (E31 [2]; 111.1 nM): 0.31 | surviving fraction (E31 [2]; 333.3 nM): 0.371 | surviving fraction (E31 [2]; 1000 nM): 0.338 | surviving fraction (E31 [2]; 3000 nM): 0.216 | surviving fraction (FT3469 [3]; 4.1 nM): 0.771 | surviving fraction (FT3469 [3]; 12.3 nM): 0.707 | surviving fraction (FT3469 [3]; 37 nM): 0.742 | surviving fraction (FT3469 [3]; 111.1 nM): 0.753 | surviving fraction (FT3469 [3]; 333.3 nM): 0.59 | surviving fraction (FT3469 [3]; 1000 nM): 0.473 | surviving fraction (FT3469 [3]; 3000 nM): 0.449 | surviving fraction (E28 [4]; 4.1 nM): 0.654 | surviving fraction (E28 [4]; 12.3 nM): 0.916 | surviving fraction (E28 [4]; 37 nM): 0.853 | surviving fraction (E28 [4]; 111.1 nM): 0.524 | surviving fraction (E28 [4]; 333.3 nM): 0.392 | surviving fraction (E28 [4]; 1000 nM): 0.319 | surviving fraction (E28 [4]; 3000 nM): 0.212 | surviving fraction (E13 [5]; 4.1 nM): 0.616 | surviving fraction (E13 [5]; 12.3 nM): 0.605 | surviving fraction (E13 [5]; 37 nM): 0.464 | surviving fraction (E13 [5]; 111.1 nM): 0.47 | surviving fraction (E13 [5]; 333.3 nM): 0.417 | surviving fraction (E13 [5]; 1000 nM): 0.331 | surviving fraction (E13 [5]; 3000 nM): 0.251 | surviving fraction (E21 [6]; 4.1 nM): 0.827 | surviving fraction (E21 [6]; 12.3 nM): 0.767 | surviving fraction (E21 [6]; 37 nM): 0.672 | surviving fraction (E21 [6]; 111.1 nM): 0.559 | surviving fraction (E21 [6]; 333.3 nM): 0.548 | surviving fraction (E21 [6]; 1000 nM): 0.525 | surviving fraction (E21 [6]; 3000 nM): 0.401 | surviving fraction (E57 [7]; 4.1 nM): 0.876 | surviving fraction (E57 [7]; 12.3 nM): 0.876 | surviving fraction (E57 [7]; 37 nM): 0.767 | surviving fraction (E57 [7]; 111.1 nM): 0.426 | surviving fraction (E57 [7]; 333.3 nM): 0.291 | surviving fraction (E57 [7]; 1000 nM): 0.266 | surviving fraction (E57 [7]; 3000 nM): 0.21 | phenotypic distance (E34 [8]; 4.1 nM): 1.01 | phenotypic distance (E34 [8]; 12.3 nM): 1.55 | phenotypic distance (E34 [8]; 37 nM): 1.65 | phenotypic distance (E34 [8]; 111.1 nM): 2.16 | phenotypic distance (E34 [8]; 333.3 nM): 1.7 | phenotypic distance (E34 [8]; 1000 nM): 3.29 | phenotypic distance (E34 [8]; 3000 nM): 4.68 | phenotypic distance (E31 [9]; 4.1 nM): 1.12 | phenotypic distance (E31 [9]; 12.3 nM): 1.08 | phenotypic distance (E31 [9]; 37 nM): 2.15 | phenotypic distance (E31 [9]; 111.1 nM): 2.63 | phenotypic distance (E31 [9]; 333.3 nM): 2.78 | phenotypic distance (E31 [9]; 1000 nM): 3.14 | phenotypic distance (E31 [9]; 3000 nM): 4.34 | phenotypic distance (FT3469 [10]; 4.1 nM): 1.56 | phenotypic distance (FT3469 [10]; 12.3 nM): 1.64 | phenotypic distance (FT3469 [10]; 37 nM): 1.95 | phenotypic distance (FT3469 [10]; 111.1 nM): 1.56 | phenotypic distance (FT3469 [10]; 333.3 nM): 2.13 | phenotypic distance (FT3469 [10]; 1000 nM): 2.73 | phenotypic distance (FT3469 [10]; 3000 nM): 2.8 | phenotypic distance (E28 [11]; 4.1 nM): 0.894 | phenotypic distance (E28 [11]; 12.3 nM): 0.602 | phenotypic distance (E28 [11]; 37 nM): 0.781 | phenotypic distance (E28 [11]; 111.1 nM): 1.28 | phenotypic distance (E28 [11]; 333.3 nM): 2.53 | phenotypic distance (E28 [11]; 1000 nM): 2.98 | phenotypic distance (E28 [11]; 3000 nM): 3.16 | phenotypic distance (E13 [12]; 4.1 nM): 1.34 | phenotypic distance (E13 [12]; 12.3 nM): 4.24 | phenotypic distance (E13 [12]; 37 nM): 1.9 | phenotypic distance (E13 [12]; 111.1 nM): 2.21 | phenotypic distance (E13 [12]; 333.3 nM): 3.13 | phenotypic distance (E13 [12]; 1000 nM): 5.26 | phenotypic distance (E13 [12]; 3000 nM): 5.24 | phenotypic distance (E21 [13]; 4.1 nM): 2.03 | phenotypic distance (E21 [13]; 12.3 nM): 1.85 | phenotypic distance (E21 [13]; 37 nM): 1.83 | phenotypic distance (E21 [13]; 111.1 nM): 3.51 | phenotypic distance (E21 [13]; 333.3 nM): 2.93 | phenotypic distance (E21 [13]; 1000 nM): 3.58 | phenotypic distance (E21 [13]; 3000 nM): 4.29 | phenotypic distance (E57 [14]; 4.1 nM): 1.31 | phenotypic distance (E57 [14]; 12.3 nM): 1.36 | phenotypic distance (E57 [14]; 37 nM): 1.73 | phenotypic distance (E57 [14]; 111.1 nM): 4.12 | phenotypic distance (E57 [14]; 333.3 nM): 6.27 | phenotypic distance (E57 [14]; 1000 nM): 6.54 | phenotypic distance (E57 [14]; 3000 nM): 7.74

CNc1ccc2oc(C[C@H]3O[C@@]4(CC[C@H]3C)O[C@H]([C@H](C)C(=O)c3ccc[nH]3)[C@H](C)C[C@H]4C)nc2c1C(=O)O [Calcimycin]
surviving fraction (E34 [1]; 4.1 nM): 0.804 | surviving fraction (E34 [1]; 12.3 nM): 0.991 | surviving fraction (E34 [1]; 37 nM): 0.946 | surviving fraction (E34 [1]; 111.1 nM): 0.787 | surviving fraction (E34 [1]; 333.3 nM): 0.467 | surviving fraction (E34 [1]; 1000 nM): 0.381 | surviving fraction (E34 [1]; 3000 nM): 0.143 | surviving fraction (E31 [2]; 4.1 nM): 0.918 | surviving fraction (E31 [2]; 12.3 nM): 0.898 | surviving fraction (E31 [2]; 37 nM): 1 | surviving fraction (E31 [2]; 111.1 nM): 0.786 | surviving fraction (E31 [2]; 333.3 nM): 0.259 | surviving fraction (E31 [2]; 1000 nM): 0.00976 | surviving fraction (E31 [2]; 3000 nM): 0.00976 | surviving fraction (FT3469 [3]; 4.1 nM): 1.05 | surviving fraction (FT3469 [3]; 12.3 nM): 0.987 | surviving fraction (FT3469 [3]; 37 nM): 0.999 | surviving fraction (FT3469 [3]; 111.1 nM): 0.849 | surviving fraction (FT3469 [3]; 333.3 nM): 0.578 | surviving fraction (FT3469 [3]; 1000 nM): 0.25 | surviving fraction (FT3469 [3]; 3000 nM): 0.118 | surviving fraction (E28 [4]; 4.1 nM): 1.07 | surviving fraction (E28 [4]; 12.3 nM): 1.19 | surviving fraction (E28 [4]; 37 nM): 0.999 | surviving fraction (E28 [4]; 111.1 nM): 0.82 | surviving fraction (E28 [4]; 333.3 nM): 0.391 | surviving fraction (E28 [4]; 1000 nM): 0.0896 | surviving fraction (E28 [4]; 3000 nM): 0.0448 | surviving fraction (E13 [5]; 4.1 nM): 0.894 | surviving fraction (E13 [5]; 12.3 nM): 0.814 | surviving fraction (E13 [5]; 37 nM): 0.678 | surviving fraction (E13 [5]; 111.1 nM): 0.576 | surviving fraction (E13 [5]; 333.3 nM): 0.266 | surviving fraction (E13 [5]; 1000 nM): 0.11 | surviving fraction (E13 [5]; 3000 nM): 0.061 | surviving fraction (E21 [6]; 4.1 nM): 0.98 | surviving fraction (E21 [6]; 12.3 nM): 0.993 | surviving fraction (E21 [6]; 37 nM): 0.951 | surviving fraction (E21 [6]; 111.1 nM): 0.887 | surviving fraction (E21 [6]; 333.3 nM): 0.438 | surviving fraction (E21 [6]; 1000 nM): 0.0684 | surviving fraction (E21 [6]; 3000 nM): 0.00892 | surviving fraction (E57 [7]; 4.1 nM): 1.07 | surviving fraction (E57 [7]; 12.3 nM): 0.989 | surviving fraction (E57 [7]; 37 nM): 0.871 | surviving fraction (E57 [7]; 111.1 nM): 0.561 | surviving fraction (E57 [7]; 333.3 nM): 0.201 | surviving fraction (E57 [7]; 1000 nM): 0.0743 | surviving fraction (E57 [7]; 3000 nM): 0.0336 | phenotypic distance (E34 [8]; 4.1 nM): 1.43 | phenotypic distance (E34 [8]; 12.3 nM): 1.06 | phenotypic distance (E34 [8]; 37 nM): 1.29 | phenotypic distance (E34 [8]; 111.1 nM): 1.9 | phenotypic distance (E34 [8]; 333.3 nM): 5.09 | phenotypic distance (E34 [8]; 1000 nM): 6.74 | phenotypic distance (E34 [8]; 3000 nM): 8.56 | phenotypic distance (E31 [9]; 4.1 nM): 0.62 | phenotypic distance (E31 [9]; 12.3 nM): 0.642 | phenotypic distance (E31 [9]; 37 nM): 0.72 | phenotypic distance (E31 [9]; 111.1 nM): 2.33 | phenotypic distance (E31 [9]; 333.3 nM): 7.91 | phenotypic distance (E31 [9]; 1000 nM): 11 | phenotypic distance (E31 [9]; 3000 nM): 10.4 | phenotypic distance (FT3469 [10]; 4.1 nM): 1.09 | phenotypic distance (FT3469 [10]; 12.3 nM): 0.726 | phenotypic distance (FT3469 [10]; 37 nM): 1.32 | phenotypic distance (FT3469 [10]; 111.1 nM): 1.82 | phenotypic distance (FT3469 [10]; 333.3 nM): 3.73 | phenotypic distance (FT3469 [10]; 1000 nM): 6.31 | phenotypic distance (FT3469 [10]; 3000 nM): 5.79 | phenotypic distance (E28 [11]; 4.1 nM): 0.698 | phenotypic distance (E28 [11]; 12.3 nM): 0.777 | phenotypic distance (E28 [11]; 37 nM): 0.856 | phenotypic distance (E28 [11]; 111.1 nM): 1.27 | phenotypic distance (E28 [11]; 333.3 nM): 2.95 | phenotypic distance (E28 [11]; 1000 nM): 5.6 | phenotypic distance (E28 [11]; 3000 nM): 6.55 | phenotypic distance (E13 [12]; 4.1 nM): 1 | phenotypic distance (E13 [12]; 12.3 nM): 0.71 | phenotypic distance (E13 [12]; 37 nM): 1.46 | phenotypic distance (E13 [12]; 111.1 nM): 3.31 | phenotypic distance (E13 [12]; 333.3 nM): 6.79 | phenotypic distance (E13 [12]; 1000 nM): 7.97 | phenotypic distance (E13 [12]; 3000 nM): 8.33 | phenotypic distance (E21 [13]; 4.1 nM): 0.571 | phenotypic distance (E21 [13]; 12.3 nM): 0.699 | phenotypic distance (E21 [13]; 37 nM): 0.538 | phenotypic distance (E21 [13]; 111.1 nM): 1.96 | phenotypic distance (E21 [13]; 333.3 nM): 7.08 | phenotypic distance (E21 [13]; 1000 nM): 8.73 | phenotypic distance (E21 [13]; 3000 nM): 12.7 | phenotypic distance (E57 [14]; 4.1 nM): 1.32 | phenotypic distance (E57 [14]; 12.3 nM): 0.365 | phenotypic distance (E57 [14]; 37 nM): 1.3 | phenotypic distance (E57 [14]; 111.1 nM): 3.84 | phenotypic distance (E57 [14]; 333.3 nM): 7.84 | phenotypic distance (E57 [14]; 1000 nM): 9.39 | phenotypic distance (E57 [14]; 3000 nM): 9.11
